Experiment [1] relates to primary T-cell derived WITO HIV interaction with human rI-domain. In words: SPR 1:1 competition assay, WITO HIV binding to rI-domain. Particulars: for % inhibition: 1:1 competition, 1 μM, 1 µM. Here is the method:
For competition analysis SPR of the HIV interaction with human rI-domain, primary T-cell derived WITO HIV was immobilized on a Cl sensor chip surface. Human rI-domain, drug or drug and human rI-domain were flowed at 1 μM over the immobilized HIV and the response units of the interactions were recorded. Any drug that could not compete with the virus or pilin binding to the rI-domain was also discarded. Remaining drugs were evaluated for known safety in humans and known therapeutic concentrations to determine if the drug would be tested, and at what concentrations, in in vitro cell models. All SPR sensorgrams and results plots were analyzed with Biacore S200 Evaluation Software (GE Healthcare Life Sciences).

The subject of experiment [2] is N. gonorrhoeae in infected PEX cells. In words: Survival assay of N. gonorrhoeae in infected PEX cells. The format is cell-based, Neisseria gonorrhoeae. From the text:
N. gonorrhoeae strains used in survival assays included MS11 Schoolnik et al (1984, supra), Segal et al (1985, supra) and 1291 Apicella et al (1974, J. Infect Dis. 130(6):619-25), Dudas and Apicella (1988, Infect Immun. 56(2):499-504), which are commonly used to study gonococcal pathogenesis. Also examined were a panel of low-passage clinical isolates (FIG. 14; i.e., N. gonorrhoeae strains LT38097, UT38885, PID-26, and SK92-679). Strains 1291 and LT38097 are male urethral isolates; strains MS11 and UT38885 were obtained from women with uncomplicated gonococcal cervicitis, strain PID-26 was obtained from a patient with pelvic inflammatory disease; and strain SK92-679 is a blood isolate from a patient with disseminated infection. Antibiotic-resistant N. gonorrhoeae strains tested were obtained from Public Health England and comprised WHO-L, WHO-M, WHO-X (H041), WHO-Y (F89), and WHO-Z (A8806), see FIG. 15. For use, bacteria were harvested from overnight (37° C., 5% CO2), GC-IsoVitaleX agar plate cultures and enumerated spectrophotometrically, as previously described Edwards et al (2000, Infect Immun 68(9):5354-63). Infection studies were performed using a multiplicity of infection of 100 Edwards et al (2000, Infect Immun 68(9):5354-63).
PEX cells were challenged with the noted N. gonorrhoeae strains for 90 min. For single dose survival assays, the infection medium was then removed, cells were rinsed thrice, and fresh medium containing 1% DMSO (vehicle control), carbamazepine ([…], as noted), or ceftriaxone (0.1 μg/mL or 0.5 μg/mL, positive control) was added. Infections were then allowed to proceed for an additional 24 h or 48 h. At the indicated times post-treatment, the infection medium was removed, the PEX cell monolayers were rinsed thrice, lysed, and viable N. gonorrhoeae were enumerated by counting colony forming units after plating serial dilutions of the PEX cell lysates (for example see 12). In some experiments (i.e., two dose survival assays for example see FIG. 13), a second dose of carbamazepine was added at 24 hours-post addition of the first carbamazepine dose. Infections were then allowed to proceed for an additional 24 h before plating the PEX cell lysate, as above. For either assay, the percentage of N. gonorrhoeae that survived carbamazepine or antibiotic treatment was determined as a function of bacteria that survived DMSO (vehicle control) treatment (set to 100%). […] To investigate whether the small percentage of the surviving bacterial cells have developed resistance to the treatment, sequential infection assays were conducted. Bacteria were harvested from the CFU count plates and then used to inoculate a new assay. […] All assays were performed in triplicate on 3 separate occasions with the noted bacterial strains. A Kruskal-Wallis k-sample analysis of variance was used to determine the statistical significance of bacterial survival.
The ability of a single dose of methyldopa was evaluated to inhibit survival of low-passage N. gonorrhoeae isolates in PEX cells challenged with those isolates. To establish infection, PEX cells were challenged with N. gonorrhoeae for 90 min using the noted low-passage isolates. Infections were then allowed to proceed for an additional 24 h or 48 h in the presence or absence of DMSO (1%, vehicle control), methyldopa (10 μM, Md), or ceftriaxone (0.5 μg/mL, positive control, Cfx).

A further experiment concerns N. gonorrhoeae strains. Kind of experiment: Well diffusion assay in the absence of human cells. Also noted: species or system Neisseria gonorrhoeae. Particulars: GC-agar, overnight 37° C.; 100 μM to 100 μM [sic]. The method, then: (§1) FIG. 22 is a graphical representation showing the effect of carbamazepine on N. gonorrhoeae in the absence of human cells. Well diffusion assays were performed in which N. gonorrhoeae strains were spread uniformly across the surface of GC-agar plates at a culture density of 10^7 bacterial per mL. Wells were then punctured within the agar surface to which carbamazepine (Cz; […], as noted), 0.2 μg/mL ceftriaxone (Cfx), 10 μg/mL ciprofloxacin (Cip), or 1% DMSO (vehicle control) were added. […] For agar plates in which a ZOI was not visible, data were recorded as the diameter of the well (6 mm), as indicated. Assays were performed in triplicate on 3 separate occasions. Data are presented as the mean and variance of the average values obtained for each assay; statistical significance was determined using a Student's t-test. […] This is consistent with a CR3-dependent, host-mediated mechanism of killing.
as §1, with “23” for “22”, “methyldopa” for “carbamazepine”, “methyldopa (Md;” for “carbamazepine (Cz;”
FIG. 24 is a graphical representation showing the effect of flufenamic acid on N. gonorrhoeae in the absence of human cells. Well diffusion assays were performed in which N. gonorrhoeae strains were spread uniformly across the surface of GC-agar plates at a culture density of 10^7 bacterial per mL. Wells were then punctured within the agar surface to which flufenamic acid ([…], as noted), 0.2 μg/mL ceftriaxone, 10 μg/mL ciprofloxacin, or 1% DMSO (vehicle control) were added. […] For agar plates in which a ZOI was not visible, data were recorded as the diameter of the well (6 mm), as indicated. Assays were performed in triplicate on 3 separate occasions. Data are presented as the mean and variance of the average values obtained for each assay; statistical significance was determined using a Student's t-test.
For orientation: A growth-free zone around the sample is the usual read-out of agar diffusion tests.

The values that follow come from patent US12564596B2, “Agents and methods for modulating pathogen activity” (Griffith University, priority 2018, dated 2026).

A word on the % inhibition: it is the share of the control response that was lost under treatment. Low values mean a response near the control, high ones a response far below the control. Turning to `NC(=O)N1c2ccccc2C=Cc2ccccc21` [carbamazepine, 5H-dibenzo[b,f]azepine-5-carboxamide], the “% inhibition” value was 97.09% in experiment [1] (listed as CARBAMAZEPINE) and approximately 97% in experiment [1] (listed as Carbamazepine). In experiment [1] (direct competition SPR), the “Block HIV in SPR” value is listed as “Yes”. For the same molecule, the “Drug RU” value in experiment [1] (drug alone flowed at 1 μM over immobilized WITO HIV) is 0.227 RU. In addition, the “Pilin + Drug RU” value in experiment [1] (drug and human rI-domain flowed at 1 μM, 1:1) amounted to 1.772 RU. The killing of gonococci result in experiment [2] (by 24 hours, concentrations of 10 μM or higher) is recorded as “greater than 99.95%”. Further, the gonococcal killing entry is “Greater than 99%” in experiment [2] (low-passage isolates, 24 h, 10 μM single dose); “Greater than 99%” in experiment [2] (multidrug-resistant strains, 24 h, 10 μM single dose); “Greater than 99%” in experiment [2] (strain MS11, by 24 h, single 100 nM dose); “greater than 99.95%” in experiment [2] (strain MS11, by 48 h, 2 100 nM doses applied 24 h apart); “Greater than 98%” in experiment [2] (strain MS11, concentrations greater than or equal to 10 nM, 24 h or 48 h); 100% in experiment [2] (strain MS11, sequential infection, following the second infection, 10 μM, 24 h). Further, the “effect on N. gonorrhoeae in the absence of human cells (zone of inhibition)” value in the experiment on N. gonorrhoeae strains was “no effect”.
